Assay results published in patent publication US9359409B2, “Antimicrobial peptides, compositions comprising the same and uses thereof” (priority 2012, dated 2016).
Where two headings read alike, the source gives them in different places. Ends that are not written are not given here.

What was measured:
[1] = system: human erythrocytes; assay: Erythrocyte hemolysis assay (cytotoxicity); assay type: cell-based; conditions: peptide 128 ug/ml
Description: Subsequently, the capacity of the peptides of the invention for lysing human erythrocytes was evaluated, as a measure of their cytotoxicity (Table 2). The assays were carried out according to the Examples and are expressed as a percentage of total lysis obtained with either water or the surfactant Tween 20. In this assays, the lower hemolysis percentage, the lower expected cytotoxic activity.
Evaluation of cytotoxic activity was performed by means of an erythrocyte hemolysis assay (according to Pure Appl. Chem., Vol. 79, No. 4, pp. 717-728, 2007). In brief, from a volume of heparinized human whole blood, 3 times that volume of PBS is added and centrifuged 10 minutes at 1500 rpm, repeating the washing two more times. 10% blood solutions in PBS were prepared with that pellet. Subsequently, each group was added the corresponding peptide at the indicated concentration and incubated at 37° C. for 30 minutes. […]

[2] = system: S. cohnii; assay type: cell-based
Description: (§1) In vitro sensitivity assay of aerobically growing bacteria, using the disc diffusion method was performed according to the standards in the M2 document of the CLSI (Clinical and Laboratory Standards Institute: Performance Standards for Antimicrobial Disk Susceptibility Tests.) using the non-amidated peptides
(§2) In brief, intermediate solutions (10×) of the antimicrobial non-amidated peptides were prepared by serial dilutions 1:2, 1:4 and 1:8 by two-fold dilutions. Then, one part of the solution of the antimicrobial peptide 10× was added to nine parts of melted bacteriological agar. The antibiotic solution was added for each dilution, in the melted agar and cooled to 45-50° C. in a water bath. Then, the agar-antibiotic mixture was placed in a Petri dish until a 3-4 mm depth was reached. The inoculum is prepared with a turbidity of 0.5 in the McFarland scale (approximately 1-2 10^8 CFU/ml). The final inoculum required for the agar dilution test is 10^4 colony forming units (CFU) per “spot” having 5-8 mm in diameter. The inoculated plates must be incubated upside down at 35° C. for a period of 16-20 hs. MIC was recorded as the value of the lower dilution completely inhibiting bacterial development, without considering the development of a single colony or a slight film caused by the inoculum deposit. The final point in these cases will correspond to the concentration at which there is more than 80% reduction in growth as compared with the control.

[3] = system: P. aeruginosa; assay type: cell-based
Description: as §1, §2

[4] = system: S. aureus; assay type: cell-based; conditions: non-amidated peptides
Description: as §1, §2

[5] = system: S. warnerii; assay type: cell-based
Description: as §1, §2

[6] = system: E. coli; assay type: cell-based; conditions: non-amidated peptides; E. coli ATCC 25922, WT
Description: as §1, §2

[7] = system: K. pneumoniae; assay type: cell-based; conditions: non-amidated peptides; K. pneumoniae M13540, KPC
Description: as §1, §2

[8] = system: A. junii; conditions: A. junii M9013, resistance gene oxa-51 + imp
Description: (§3) Subsequently, an analysis of a panel of clinical isolates including strains with different resistance mechanisms against conventional antibiotics was carried out, all of which are of clinical relevance. […] In Table 3 the results for a panel of Gram negative bacteria are shown, and in Table 4 for a panel of […] bacteria. In these tables the detected gene/s responsible for the resistance against antibiotics for each strain, are included.
(§4) Antimicrobial activity was analyzed by means of the determination of the MIC (minimum inhibitory concentration) by the microdilution technique. The technique was carried out in the standard fashion according to (CLSI M07-A9 Vol. 32 No 2. January 2012). The peptide concentration range used was from 0.5 μg/mL to 512 μg/mL in two-fold serial dilutions. The used medium was MH Difco broth supplemented with cations, at a final concentration of Ca^++20-25 mg/L and Mg^++10-12.5 mg/L. The working inoculum used corresponds to a 1/100 dilution of a bacterial suspension equivalent to 0.5 in the Mc Farland scale.

[9] = system: E. raffinosus; conditions: E. raffinosus M6187, resistance gene vanA
Description: as §3, §4

[10] = system: E. gallinarum
Description: as §3, §4

[11] = system: A. baumanii
Description: as §3, §4

[12] = system: S. saprophyticus
Description: as §3, §4

[13] = system: S. haemolyticus
Description: as §3, §4

[14] = system: E. faecalis
Description: as §3, §4

[15] = system: S. hominis
Description: as §3, §4

[16] = system: Klebsiella pneumoniae
Description: (§5) The 5 designed and synthesized peptides of the invention, plus omiganan (peptide of the state of the art) were evaluated for their antimicrobial capacity in microdilution assays for determining the minimum inhibitory concentration (MIC). A first panel of 8 representative strains was analyzed in these assays, encompassing Gram positive and Gram negative bacteria. […] The lowest MIC values indicate a higher antimicrobial potency.
as §3, §4

[17] = system: Escherichia coli
Description: as §5, §3, §4

With “ILRWPWWPWRRK-NH2 [Omiganan, ILRWPWWPWRRK, reference compound]” the “Hemolysis % (1% Tween20)” value ([1]; percentage of total lysis obtained with 1% Tween20) was 11.6%, the “Hemolysis % (water)” value ([1]; percentage of total lysis obtained with water) was 10% and the “OD 540 nm” value ([1]; supernatant of human erythrocytes, 37° C., 30 minutes) was 0.171. For the same substance, the “MIC in agar dilution” value [2] was 16 mg/L, the “MIC in agar dilution” value [3] was over 128 mg/L and the “MIC in agar dilution” value ([3]; non-amidated peptides, P. aeruginosa M13513, KPC) was over 128 mg/L. The “MIC in agar dilution” value ([4]; S. aureus ATCC29213, MSSA) was over 128 mg/L, the “MIC in agar dilution” value ([4]; S. aureus M6794, MRSA) was over 128 mg/L and the “MIC in agar dilution” value [5] was 16 mg/L. The “MIC in agar dilution” value [6] was over 128 mg/L, the “MIC in agar dilution” value [7] was over 128 mg/L and the MIC [8] was 64 mg/L. The MIC [9] was 4 mg/L, the MIC ([10]; E. gallinarum M2685, resistance gene vanC1 + vanA) was 16 mg/L and the MIC ([10]; E. gallinarum M2723, resistance gene vanC1 + vanA) was 16 mg/L. The MIC ([11]; A. baumanii FAV-1, resistance gene per + oxa-51 + oxa-58) was 64 mg/L, the MIC ([11]; A. baumanii M5179, resistance gene oxa-51) was 64 mg/L and the MIC ([11]; A. baumanii M5277, resistance gene per) was 32 mg/L. It also gave an MIC ([11]; A. baumanii M5282, resistance gene oxa-51) of 16 mg/L, an MIC ([11]; A. baumanii M7489, resistance gene oxa-51 + tem) of 32 mg/L and an MIC ([11]; A. baumanii M7978, resistance gene imp) of 64 mg/L. It also gave an MIC ([11]; A. baumanii M9665, resistance gene oxa-51) of 64 mg/L, an MIC ([11]; A. baumanii M13523, resistance gene oxa-51) of 64 mg/L and an MIC [12] of 8 mg/L. It also gave an MIC [13] of 4 mg/L, an MIC [14] of 128 mg/L and an MIC ([14]; E. faecalis ATCC 51299, resistance gene vanB) of 256 mg/L. For the same substance, the MIC ([14]; E. faecalis M4449, resistance gene vanA) was 128 mg/L, the MIC ([14]; E. faecalis M4899, resistance gene vanB) was 256 mg/L and the MIC ([14]; E. faecalis M4992, resistance gene vanA) was 128 mg/L. It also gave an MIC ([14]; E. faecalis M6383, resistance gene vanA) of 128 mg/L, an MIC ([14]; E. faecalis M6534, resistance gene vanB) of 256 mg/L and an MIC ([14]; E. faecalis M6983, resistance gene vanA) of 128 mg/L. The MIC [15] was 4 mg/L, the MIC ([16]; K. Pneumoniae M9885, resistance gene kpc) was 256 mg/L and the MIC ([16]; K. pneumoniae M9170, resistance gene oxa-GIII) was 128 mg/L. It also gave an MIC ([16]; K. pneumoniae M9491, resistance gene mox) of 128 mg/L, an MIC ([16]; K. pneumoniae M13540, resistance gene kpc) of 256 mg/L and an MIC ([17]; E. coli ABC11, resistance gene ctx-m-2) of 64 mg/L. The MIC ([17]; E. coli Cos15, resistance gene per + tem) was 64 mg/L, the MIC ([17]; E. coli LCA1, resistance gene ctx-m-2 + tem-1) was 64 mg/L and the MIC ([17]; E. coli M5306, resistance gene ctx-m-2 + tem-1 + per-2) was 64 mg/L. The MIC ([17]; E. coli M7859, resistance gene cit) was 64 mg/L, the MIC ([17]; E. coli M9209, resistance gene kpc) was 64 mg/L and the MIC ([17]; E. coli NEU23, resistance gene oxa-GIII + tem) was 32 mg/L.
